In patent publication US7183269B2, “Synergistic compositions for the selective control of tumor tissue” (priority 1997, dated 2007):

Columns and labels:
RT112 = experiment: Cell Death Detection ELISA (apoptosis kit) with RT112 as a function of pH; type: cell-based, human
Experimental: The measurements were carried out using a “Cell Death Detection ELISA” kit, Cat. No. 1774 425 commercially available from Boehringer (Mannheim). The process instructions are additionally supplied by Boehringer.
The OD value corresponds to the cell death.
The results of the experiments are summarized in FIGS. 1 to 3, which correspond to Tables 1 to 3. In the figures, the cell death is recorded in a ELISA (apoptosis kit) with RT112 as a function of the pH. That is to say the data on the Y axis of the figures is a measure of the cell death; the pH of the cells is indicated on the X axis. FIG. 1 and FIG. 2 show experiments in which individual compounds were employed. […] It stands out that at a pH of between 6.5 and 7.0 the compositions according to the invention cause a cell death which is preferably in the vicinity of or above the CAM value, which virtually corresponds to a complete destruction of the tumor tissue.
The apoptosis-inducing substance CAM used in the experiments is camptothecin (CAM value). In the experiments, positive control means that instead of the apoptotic cancer cells induced by the substances a histone-DNA complex with known detection sensitivity is employed for detection, i.e. an artificial apoptosis product is provided. In the experiments, negative control means that the same detection procedure is carried out, but without addition of substances or substance mixtures.
(§1) The human bladder tumor cell line. RT112 or the human chronic myeloid leukemia cell line K562 were purchased from DKFZ Tumorzell—und datenbank (Institut für experimentelle Pathologie, Heidelberg, FRG) or DSM (Deutsche Sammlung von Mikroorganismen und Zellkulturen GmbH, Braunschweig, FRG), respectively. The cells were cultured in HEPES-buffered RPMI 1640 (SIGMA, Deisenhofen, FRG) supplemented with 2 mM L-glutamine (BIOCHROM, Berlin, FRG), 1% NEAE (BIOCHROM), 10% heat-inactivated fetal calf serum (BIOCHROM), 100 U/ml penicillin and 50 μg/ml streptomycin (BIOCHROM) at 37° C. and 5% CO2. Only mycoplasma-free cell cultures were used; this was frequently tested using a specific detection kit (BOEHRINGER MANNHEIM, Mannheim, FRG).

[1] = tested on: RT112 tumor cells (bladder carcinoma); experiment: [3H]-TdR incorporation assay (proliferation); type: cell-based, human; conditions: in dependence of extracellular pH, FIG. 4
Description: The anticancer activity of salicylate combinations can also be examined by in vitro experiments with tumor cell lines. As a relevant criterion of toxic effects on cancer cells the proliferation rate can be considered. The proliferation rate effected by salicylate combinatioins can be measured in dependence of the extracellular pH-milieu. (Details for cell cultures, see Materials & Methods below.)
The effect of salicylate combinations on the proliferation of RT112 tumor cells is quantitated by the measurement of incorporated tritiated thymidine ([^3H]-TdR) into the cellular DNA of the cancer cells by liquid scintillation counting (LSC). (Method details, see Material & Methods below.)
as §1
The influence of cytotoxic molecules on the proliferation of RT112 tumor cells was quantitated by the measurement of the incorporated tritiated thymidine ([^3H]-TdR) into the cellular DNA of the tumor cells by liquid scintillation counting (LSC). In brief, RT112 cells were harvested, washed twice and resuspended in culture media (2.5×10^5/ml). 100 μl/well of the RT112 cell suspension were seeded into 96 well microtiter plates (BECTON DICKINSON) and incubated over night at 37° C. and 5% CO2. The supernatant was replaced by 90 μl pH-adjusted culture medium (pH 6.0–7.4) and 10 μl of the solution of preferred substances or 100 μl/well pH-adjusted culture medium alone (control). The cells were incubated for various time periods at 37° C. and 5% CO2. Thereafter, cells were washed twice, reincubated in fresh pH-adjusted culture medium and pulsed for 24 h by the addition of 23.125 kBq [^3H]TdR/well (925 kBq/ml; AMERSHAM, Braunschweig, FRG). After freezing and thawing, radioactive DNA of the cultures were transferred to glass fiber filters with an automatic cell harvester (PHARMACIA). The incorporated radioactivity was measured in a liquid scintillation counter (PHARMACIA).

[2] = Table 2, measurement after 35 minutes, 15 mM, initial pH 6.0
[3] = Table 2, measurement after 35 minutes, 15 mM, initial pH 6.5
[4] = Table 2, measurement after 35 minutes, 15 mM, initial pH 7.0
[5] = Table 2, measurement after 35 minutes, 15 mM, initial pH 7.4
[6] = Table 2, measurement after 35 minutes, 10 mM, initial pH 6.0
[7] = Table 2, measurement after 35 minutes, 10 mM, initial pH 6.5
[8] = Table 2, measurement after 35 minutes, 10 mM, initial pH 7.0
[9] = Table 2, measurement after 35 minutes, 10 mM, initial pH 7.4

In the case of CC[C@@]1(O)C(=O)OCc2c1cc1n(c2=O)Cc2cc3ccccc3nc2-1 [CAM, camptothecin], the “OD (405–490 nm)” value (RT112; Table 1, measurement after 35 minutes, 800 ng/ml, initial pH 6.0) is reported as 0.818, the “OD (405–490 nm)” value (RT112; Table 1, measurement after 35 minutes, 800 ng/ml, initial pH 6.5) is reported as 3.037 and the “OD (405–490 nm)” value (RT112; Table 1, measurement after 35 minutes, 800 ng/ml, initial pH 7.0) is reported as 2.725. For the same compound, the “OD (405–490 nm)” value (RT112; Table 1, measurement after 35 minutes, 800 ng/ml, initial pH 7.4) was 2.416, the “OD (405–490 nm)” value (RT112; Table 2, measurement after 35 minutes, 160 ng/ml, initial pH 6.0) was 0.344 and the “OD (405–490 nm)” value (RT112; Table 2, measurement after 35 minutes, 160 ng/ml, initial pH 6.5) was 0.711. The “OD (405–490 nm)” value (RT112; Table 2, measurement after 35 minutes, 160 ng/ml, initial pH 7.0) was 1.220, the “OD (405–490 nm)” value (RT112; Table 2, measurement after 35 minutes, 160 ng/ml, initial pH 7.4) was 1.923 and the “OD (405–490 nm)” value (RT112; Table 3, measurement after 20 minutes, 800 ng/ml, initial pH 6.0) was 1.681. The “OD (405–490 nm)” value (RT112; Table 3, measurement after 20 minutes, 800 ng/ml, initial pH 6.5) was 1.708, the “OD (405–490 nm)” value (RT112; Table 3, measurement after 20 minutes, 800 ng/ml, initial pH 7.0) was 1.791 and the “OD (405–490 nm)” value (RT112; Table 3, measurement after 20 minutes, 800 ng/ml, initial pH 7.4) was 2.217.

In the case of O=C(O)c1c(O)cc(O)cc1O [DHSA, 2,4,6-trihydroxybenzoic acid], the “effect on the proliferation rate” value [1] is reported as “no effect or minor effect”.

In the case of O=C(O)c1cc(-c2ccc(F)cc2F)ccc1O [Diflu, 5-(2,4-difluoro-phenyl)salicylic acid], the “effect on the proliferation rate” value [1] is reported as “no effect or minor effect”.

Nc1ccc(C(=O)O)c(O)c1 [Substance 58a, 2-hydroxy-4-aminobenzoic acid] was tested, and the “effect on the proliferation rate” value [1] was “no effect or minor effect”, the “OD (405–490 nm)” value (RT112; [2]) was 0.320 and the “OD (405–490 nm)” value (RT112; [3]) was 0.282. For the same compound, the “OD (405–490 nm)” value (RT112; [4]) was 0.574 and the “OD (405–490 nm)” value (RT112; [5]) was 1.835.

For CC(=O)Oc1ccccc1C(=O)O [Substance 121, acetylsalicylic acid (2-acetoxybenzoic acid)], the “effect on the proliferation rate” value [1] was “no effect or minor effect”, the “OD (405–490 nm)” value (RT112; [6]) was 1.282 and the “OD (405–490 nm)” value (RT112; [7]) was 0.163. The “OD (405–490 nm)” value (RT112; [8]) was 0.413 and the “OD (405–490 nm)” value (RT112; [9]) was 1.508.

CC(=O)Oc1ccc(C(=O)O)c(OC(C)=O)c1 [Substance 132, 2,4-diacetoxybenzoic acid] was tested, and the “OD (405–490 nm)” value (RT112; [6]) was 2.856, the “OD (405–490 nm)” value (RT112; [7]) was 0.183 and the “OD (405–490 nm)” value (RT112; [8]) was 0.088. The “OD (405–490 nm)” value (RT112; [9]) was 0.502, the “OD (405–490 nm)” value (RT112; Table 3, measurement after 20 minutes, 5 mM, initial pH 6.0) was 0.407 and the “OD (405–490 nm)” value (RT112; Table 3, measurement after 20 minutes, 5 mM, initial pH 6.5) was 0.371. For the same compound, the “OD (405–490 nm)” value (RT112; Table 3, measurement after 20 minutes, 5 mM, initial pH 7.0) was 0.422 and the “OD (405–490 nm)” value (RT112; Table 3, measurement after 20 minutes, 5 mM, initial pH 7.4) was 0.916.

For O=C(O)c1c(O)cccc1O [Substance 136, 2,6-dihydroxybenzoic acid], the “effect on the proliferation rate” value [1] was “no effect or minor effect”, the “OD (405–490 nm)” value (RT112; Table 1, measurement after 35 minutes, 5 mM, initial pH 6.0) was 0.187 and the “OD (405–490 nm)” value (RT112; Table 1, measurement after 35 minutes, 5 mM, initial pH 6.5) was 0.918. The “OD (405–490 nm)” value (RT112; Table 1, measurement after 35 minutes, 5 mM, initial pH 7.0) was 0.321, the “OD (405–490 nm)” value (RT112; Table 1, measurement after 35 minutes, 5 mM, initial pH 7.4) was 0.382 and the “OD (405–490 nm)” value (RT112; Table 1, measurement after 35 minutes, 7 mM, initial pH 6.0) was 0.221. The “OD (405–490 nm)” value (RT112; Table 1, measurement after 35 minutes, 7 mM, initial pH 6.5) was 1.287, the “OD (405–490 nm)” value (RT112; Table 1, measurement after 35 minutes, 7 mM, initial pH 7.0) was 0.524 and the “OD (405–490 nm)” value (RT112; Table 1, measurement after 35 minutes, 7 mM, initial pH 7.4) was 0.816.

In the case of COc1ccc(C(=O)O)c(OC)c1 [Substance 188, 2,4-dimethoxybenzoic acid], the “OD (405–490 nm)” value (RT112; [2]) is reported as 0.256, the “OD (405–490 nm)” value (RT112; [3]) is reported as 0.309 and the “OD (405–490 nm)” value (RT112; [4]) is reported as 0.502. The “OD (405–490 nm)” value (RT112; [5]) was 1.854.
